From US11311538B2, “Compositions and methods for targeting cancers” (YALE UNIVERSITY, priority 2018, dated 2022)

Legend:
poly-ADP-ribose (PAR) = experiment: Western blot of PAR levels in xenograft tumors; assay type: in vivo, mouse; details: 24 h post treatment (FIGS. 9A-9B)
Procedure: Western Blot analyses. Western blot analysis of protein levels was conducted by loading 30 μg of whole cell lysate onto a 4-20% polyacrylamide gel. Total protein was transferred to a nitrocellulose membrane. After blocking with 5% milk, membranes were incubated with primary antibodies. Antibodies used were: Rabbit monoclonal anti-Fumarase (D9C5,Cell Signaling Technologies) 1:1000 in 5% BSA, mouse monoclonal anti-SDHB (21A11AE7, Abcam) 1:1000 in % 5 milk, mouse monoclonal anti-Vinculin (SPM227, Abcam) 1:1000 in 5% milk, rabbit polyclonal anti-Histone 3 Lysine 36 trimethyl (9050, Abcam) 1:500 in 5% BSA, anti-Histone 3 Lysine 9 trimethyl (D4W1U, Cell Signaling Technologies) 1:1000 in 5% BSA, mouse monoclonal anti-Beta Actin (60008, Protein Tech) 1:5000 5% milk, rabbit Polyclonal anti-Histone H3 (ab1791, Abcam 1:5000 5% BSA), rabbit Polyclonal anti-PAR (4336-BPC-100, Trevigen) 1:5000 5% BSA, mouse monoclonal anti-GAPDH (60004 Protein Tech) 1:5000 5% milk, mouse monoclonal anti-BRCA2 (ab1, Millipore, 1:1000 5% Milk), mouse monoclonal anti-BRCA1 (D-9, Santa Cruz, 1:200 5% milk), mouse monoclonal anti-RAD51(14B4 Novus bio, 1:1000 5% milk). Patient sample blots were reprobed. […] Doxycycline induced knockdown was monitored by western blot as well as by RFP fluorescence from the internal and dox-inducible reporter on the TRIPZ construct. […]

[1] = system: HLRCC UOK 262 xenograft tumors; experiment: Tumor growth delay assay, UOK 262 xenografts; assay type: in vivo, mouse; details: BMN-673 0.5 mg/kg gavage daily, started at average tumor size 250 mm^3 (FIG. 4M)
Description: In vivo efficacy studies: HEK293FT xenografts. Female athymic nu/nu mice (Hsd:Athymic Nude-Foxnlnu, Envigo) were used for all in vivo xenograft studies. Mice were quarantined for at least 1 week before experimental manipulation. Tumors were formed using shRNA-expressing versions of the tumorigenic human embryonic kidney cell-derived line, HEK293FT. HEK293FT is a subline of HEK293 cells that has been transformed by expression of SV40 Large T-antigen. […], or shCTRL (non-targeted control) expressing HEK293FT cells were implanted subcutaneously (5×10^6 cells in 0.1 cc PBS) in the right flank of nude mice. Two efficacy studies were conducted. In one, mice were randomized into treatment and non-treated groups (10 mice/group) at day 3, with treatment initiation 4 days post implant. In a second independent in vivo efficacy study, mice were injected as above with 10 mice per group, and treatment was started only once the tumor volumes reached […]. For both studies, mice were visually observed daily and tumors were measured three times per week by calipers to determine tumor volume using the formula: Volume=L×W×W×0.532. Mice were fed with a grain based rodent diet containing Doxycycline at 200 mg/kg (Bioserv, Catalog #S3888). […] P-values were determined by ANOVA with repeated measures. […]

With Cn1ncnc1[C@H]1c2n[nH]c(=O)c3cc(F)cc(c23)N[C@@H]1c1ccc(F)cc1 [BMN-673, BMN-673 (Talazoparib)] the “PAR levels by western blot, SDHB knockdown vs shCTRL tumors” value (poly-ADP-ribose (PAR)) was “reduced to the same extent” and the “tumor growth delay, UOK 262 xenografts” value [1] was “substantial growth delay”.
